In patent publication US20250195445A1, “LONG-LASTING ANTIMICROBIAL COMPOSITIONS CONTAINING CATIONIC ACTIVE AGENTS AND ANIONIC EXCIPIENTS AND USES” (priority 2022, published 2025):

Experiment: isothermal nanotitration calorimetry, interaction with beta-cyclodextrin
Type: physicochemical
Settings: for strength of interaction with beta-cyclodextrin: adimensional values
Excerpt: In adimensional values: 1000×10^6 and 737×10^6, respectively (Table 6). [table]

Compound	strength of interaction with beta-cyclodextrin	interaction with beta-cyclodextrin relative to interaction of sodium lauryl sulfate with beta-cyclodextrin (calorimetric analyses)
N=C(NCCCCCCNC(=N)NC(=N)Nc1ccc(Cl)cc1)NC(=N)Nc1ccc(Cl)cc1 [chlorhexidine digluconate, 1,1′-hexamethylene bis(5-(p-chlorophenyl)biguanide)]	1000×10^6	about 1000 times
CCCCCCCCCCCCOS(=O)(=O)[O-].[Na+] [sodium lauryl sulfate]	737×10^6	
